Read-outs that look alike come from different tables or passages of the source.

Assay [1] has as its target alpha-amylase (Bacillus licheniformis, UniProt P06278). The note with it: for (-Δ G°) stabilization free energy, R T ln F: 95° C. (T = 368K); for t 1/2: salt added to 1.22 M, diluted 1×100.
Assay [2] deals with alpha-amylase (Taka-Therm L-170). The note with it: pH 5.5. The method, then:
In a typical run, 70 lbs. of corn starch was suspended in 59 liters of water and the pH adjusted to 5.0 using acetic acid. […] After gelantinization, the starch was flashed into a temperature regulated vessel maintained at 95° C. for continued liquefaction for 2 hours. In another experiment, the liquefaction of starch was carried out at pH 6.3-6.5 (pH adjusted using sodium hydroxide) in the presence of 50 ppm added calcium.
Calcium chloride was added to a level of 25 ppm (as Ca^++) and the pH adjusted to 5.5 using 10% sodium hydroxide.

In assay [3] the test system is alpha-amylase. In words: Comparative thermal stability of alpha-amylase with different anions at 90° C. The note with it: percent residual activity versus time at 90° C., FIG. 2. The class given is biochemical. The method, then:
A comparative study was conducted in which the stability of alpha-amylase stabilized with acetate was compared with that containing anions known to have been added to commercially available alpha-amylase solutions. The activity of the various anion containing enzyme solutions was determined as previously described and the percent residual activity plotted as a function of time at 90° C. The results of this study are graphically represented in FIG. 2. The stabilizing effects of the different anions against thermal inactivation of the enzyme followed this order: citrate<sulphate<chloride<acetate.

Chain of alpha-amylase (Bacillus licheniformis, UniProt P06278) (P06278 30-512): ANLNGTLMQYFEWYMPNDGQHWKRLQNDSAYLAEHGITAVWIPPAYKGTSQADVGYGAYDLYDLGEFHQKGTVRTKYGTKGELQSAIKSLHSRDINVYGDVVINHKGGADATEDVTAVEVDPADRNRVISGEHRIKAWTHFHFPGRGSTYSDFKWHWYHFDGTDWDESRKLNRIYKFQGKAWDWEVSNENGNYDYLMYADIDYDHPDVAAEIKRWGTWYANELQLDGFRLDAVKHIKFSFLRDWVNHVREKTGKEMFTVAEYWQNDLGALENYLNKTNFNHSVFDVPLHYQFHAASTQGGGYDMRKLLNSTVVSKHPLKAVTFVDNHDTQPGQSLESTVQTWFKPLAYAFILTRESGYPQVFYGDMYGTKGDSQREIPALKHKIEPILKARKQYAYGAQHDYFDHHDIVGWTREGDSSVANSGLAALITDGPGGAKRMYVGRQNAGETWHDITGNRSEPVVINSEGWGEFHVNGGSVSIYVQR

Consider `CCCC(=O)[O-].[Na+]` [CH3 CH2 CH2 COONa, sodium butyrate], for which the “(-Δ G°) stabilization free energy, R T ln F” value at alpha-amylase [1] (pH 5.8) turned out to be 1.5 K cal/mole. Moreover, at alpha-amylase [1] (95° C., pH 5.8, aliphatic monocarboxylic acid sodium salts, FIG. 1), the “order of thermal stabilization of the enzyme” value is on record as “formate<acetate<propionate<butyrate”. At alpha-amylase [1] (95° C., pH 5.8), the “t 1/2” value was determined as 13.3 min. In addition, the “additional stabilization attributed to the butyl group” value on alpha-amylase [1] (relative to formate, 95° C., pH 5.8) is listed as “about 0.6 K Cal/mol”.
In the case of `O=C(O)C(c1ccccc1)c1ccccc1` [Diphenylacetic, diphenylacetic acid], the “Half-Life 95° C., pH 5.8” value at alpha-amylase [1] is 15 minutes. Also, the “(-Δ G°) stabilization free energy, R T ln F” value at alpha-amylase [1] (pH 5.8) is listed as 1.5 K cal/mole. In addition, the “relative stabilizing effect in words” value at alpha-amylase [1] (95° C., pH 5.8, comparison among acids tested) was “the most”. Also, the “t 1/2” value at alpha-amylase [1] (95° C., pH 5.8) turned out to be 15.0 min.
Turning to `CC(=O)O` [Na Acetate, Sodium acetate], the “DE Progression” value in assay [2] (Starch slurry containing 0.7 mM of sodium acetate + 25 ppm of added Ca^++, 1/2 hr) was 4.15; in assay [2] (Starch slurry containing 0.7 mM of sodium acetate + 25 ppm of added Ca^++, 11/2 hr), 8.87; in assay [2] (Starch slurry containing 0.7 mM of sodium acetate + 25 ppm of added Ca^++, 1 hr), 6.11; in assay [2] (Starch slurry containing 0.7 mM of sodium acetate + 25 ppm of added Ca^++, 2 hr) it was 10.25; in assay [2] (Starch slurry containing 0.01 M sodium acetate and 25 ppm of added Ca^++, 1/2 hr) it was 5.53; in assay [2] (Starch slurry containing 0.01 M sodium acetate and 25 ppm of added Ca^++, 11/2 hr), 10.82. For the same molecule, the “DE Progression” value is 8.64 in assay [2] (Starch slurry containing 0.01 M sodium acetate and 25 ppm of added Ca^++, 1 hr); 13.01 in assay [2] (Starch slurry containing 0.01 M sodium acetate and 25 ppm of added Ca^++, 2 hr). The “order of stabilizing effects of anions against thermal inactivation of the enzyme” value (from here on “order of stabilizing effects of anions”) in the assay on alpha-amylase [3] is on record as “citrate<sulphate<chloride<acetate”.
Consider `O=C(O)Cc1ccccc1` [Phenylacetic acid, phenylacetic acid], for which the “Half-Life 95° C., pH 5.8” value at alpha-amylase [1] stood at 7 minutes. Moreover, the “(-Δ G°) stabilization free energy, R T ln F” value on alpha-amylase [1] (pH 5.8) was found to be 1.0 K cal/mole. Moreover, the “t 1/2” value at alpha-amylase [1] (95° C., pH 5.8) came out at 7.0 min.
Take `Cl` [chloride]: in the assay on alpha-amylase [3], the “order of stabilizing effects of anions” value is recorded as “citrate<sulphate<chloride<acetate”.
`O=C(O)CC(O)(CC(=O)O)C(=O)O` [citrate]: in the assay with alpha-amylase [3], the “order of stabilizing effects of anions” value is “citrate<sulphate<chloride<acetate”.
The same measure, in the same setting: the entry for `O=S(=O)(O)O` [sulphate] is “citrate<sulphate<chloride<acetate”.

The values are drawn from patent publication US4717662A (priority 1985, dated 1988).
